Series [1] is described as follows: Inhibition of bovine aggrecanase. Details: species or system Bos taurus.
Series [2] has as its target Matrix metalloproteinase-9 (Homo sapiens, UniProt P14780). Briefly: Affinity for Matrix metalloprotease-9 (MMP-9).
Series [3] can be described thus: Tmax after peroral administration (1 mg/kg) was determined in dog. It counts as ADME, organism-based, Canis lupus familiaris. The note with it: in vivo, po.
Series [4] in a line: Bioavailability after peroral administration (10 mg/kg) was determined in rat. The format is ADME, organism-based. The note with it: in vivo, po.
Series [5] in a line: Systemic clearance after intravenous administration (0.5 mg/kg) was determined in dog. The note with it: in vivo. The format is ADME, organism-based, Canis lupus familiaris.
A short description of series [6]: Half life time after intravenous administration (5.0 mg/kg) was determined in rat. It counts as ADME, organism-based. Particulars: in vivo.
Series [7] can be described thus: Bioavailability after peroral administration (1 mg/kg) was determined in dog. Particulars: in vivo, po. It counts as ADME, organism-based, Canis lupus familiaris.
Series [8] is described as follows: Tmax after peroral administration (10 mg/kg) was determined in rat. It counts as ADME, organism-based. Particulars: in vivo, po.
A short description of series [9]: Vss after intravenous administration (5.0 mg/kg) was determined in rat. Particulars: in vivo, read-out: Vss. It counts as ADME, organism-based.
A short description of series [10]: Vss after intravenous administration (0.5 mg/kg) was determined in dog. It counts as ADME, organism-based, Canis lupus familiaris. Particulars: in vivo, read-out: Vss.
The nature of series [11]: Systemic clearance after intravenous administration (5.0 mg/kg) was determined in rat. The format is ADME, organism-based. Particulars: in vivo.
Series [12] in a line: Half life time after intravenous administration (0.5 mg/kg) was determined in dog. The format is ADME, organism-based, Canis lupus familiaris. The note with it: in vivo.

Sequence of Matrix metalloproteinase-9 (P14780 whole entry): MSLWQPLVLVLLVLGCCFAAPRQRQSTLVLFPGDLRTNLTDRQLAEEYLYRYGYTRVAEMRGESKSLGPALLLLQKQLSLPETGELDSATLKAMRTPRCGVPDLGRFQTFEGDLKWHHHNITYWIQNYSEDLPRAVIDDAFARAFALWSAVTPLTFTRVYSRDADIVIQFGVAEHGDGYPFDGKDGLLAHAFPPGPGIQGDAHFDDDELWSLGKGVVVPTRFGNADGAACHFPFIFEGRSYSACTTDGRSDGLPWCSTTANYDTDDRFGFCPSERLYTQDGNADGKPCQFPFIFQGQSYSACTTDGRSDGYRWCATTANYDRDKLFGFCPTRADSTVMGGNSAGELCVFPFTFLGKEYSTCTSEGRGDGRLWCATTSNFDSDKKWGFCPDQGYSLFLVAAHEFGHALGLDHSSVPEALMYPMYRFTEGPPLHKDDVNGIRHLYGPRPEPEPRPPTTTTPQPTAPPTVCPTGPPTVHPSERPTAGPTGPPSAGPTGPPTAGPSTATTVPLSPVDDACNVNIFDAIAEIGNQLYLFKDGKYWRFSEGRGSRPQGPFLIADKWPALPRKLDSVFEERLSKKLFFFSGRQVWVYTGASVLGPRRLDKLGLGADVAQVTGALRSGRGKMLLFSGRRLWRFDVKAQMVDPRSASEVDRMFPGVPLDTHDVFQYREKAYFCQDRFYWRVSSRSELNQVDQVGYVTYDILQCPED

On to `CN1CCC([C@H](C(=O)NO)[C@@H](Cc2cccc(O)c2)C(=O)N[C@H]2c3ccccc3C[C@H]2O)CC1`, for which the IC50 in [1] amounted to 0.21 µM. Besides, the Ki in [2] was over 2.13 µM.
`O=C(NO)[C@@H](NCC1CC1)[C@@H](Cc1cccc(O)c1)C(=O)N[C@H]1c2ccccc2C[C@H]1O` yielded a half-inhibitory concentration (IC50) in [1] of 0.012 µM.
In series [1], `CS(=O)(=O)N1CCC([C@H](C(=O)NO)[C@@H](Cc2cccc(O)c2)C(=O)N[C@H]2c3ccccc3C[C@H]2O)CC1` yielded a half-inhibitory concentration (IC50) of 0.003 µM. Besides, the Ki in series [2] was 2.1 µM.
Turning to `O=C(N[C@H]1c2ccccc2C[C@H]1O)[C@H](Cc1cccc(O)c1)[C@@H](C(=O)NO)C1CCNCC1`, the Tmax in series [3] is 4.3 h; in series [8], 1.5 h. For the same compound, the bioavailability came out at 1% in series [4] and 20% in series [7]. In [1], this compound registered an IC50 of 0.028 µM. Further, the clearance in series [5] was 1.67 mL/min/kg; in series [11] it was 8.33 mL/min/kg. In addition, the half-life is 4 h in [6] and 3.8 h in [12]. The Vd in series [9] amounted to 0.3 L/kg; in series [10], 0.2 L/kg. The inhibition constant Ki in [2] came out at 4 µM.
In turn, `O=C(N[C@H]1c2ccccc2C[C@H]1O)[C@H](Cc1cccc(O)c1)[C@@H](C(=O)NO)C1CN(C(=O)C(F)(F)F)C1` gave an IC50 in series [1] of 0.003 µM. Further, in series [2], the Ki is 1.49 µM.
The corresponding values for `CC(C)(C)OC(=O)N1CCC([C@H](C(=O)O)C(Cc2cccc(O)c2)C(=O)N[C@H]2c3ccccc3C[C@H]2O)CC1` (stereo not given in full) are over 1 µM and over 2.13 µM.
The like results for `CCC(=O)N1CCC(C[C@H](C(=O)NO)[C@@H](Cc2cccc(O)c2)C(=O)N[C@H]2c3ccccc3C[C@H]2O)CC1` were, in that order, 0.097 µM and over 2.13 µM.
The like results for `O=C(N[C@H]1c2ccccc2C[C@H]1O)[C@H](Cc1cccc(O)c1)[C@@H](C(=O)NO)C1CNC1` were, in that order, 0.007 µM and over 2.13 µM.
In the case of `CC(C)(C)OC(=O)N1CCC([C@H](C(=O)NO)[C@@H](Cc2cccc(O)c2)C(=O)N[C@H]2c3ccccc3C[C@H]2O)CC1`, half-maximal inhibition in series [1] (IC50) required 0.019 µM. Affinity in series [2] was put at a Ki of 1.3 µM.
The compound `CCOC(=O)N1CCC([C@H](C(=O)NO)[C@@H](Cc2cccc(O)c2)C(=O)N[C@H]2c3ccccc3C[C@H]2O)CC1` had an IC50 in series [1] of 0.007 µM. This compound showed a Ki in series [2] of 0.832 µM.
The like results for `CC(=O)N1CCC(C(C(=O)NO)C(Cc2cccc(O)c2)C(=O)N[C@H]2c3ccccc3C[C@H]2O)CC1` (single isomer, unassigned) were, in that order, 0.029 µM and 1.74 µM.
The like results for `CCN1CCC(C(C(=O)NO)C(Cc2cccc(O)c2)C(=O)N[C@H]2c3ccccc3C[C@H]2O)CC1` (single isomer, unassigned) were, in that order, 0.045 µM and over 2.13 µM.
Consider `CC(=O)N1CCC(CC(C(=O)NO)C(Cc2cccc(O)c2)C(=O)N[C@H]2c3ccccc3C[C@H]2O)CC1` (single isomer, unassigned), for which the IC50 in series [1] was found to be 0.114 µM. In series [2], the Ki was over 2.13 µM.

The values are drawn from ChEMBL document CHEMBL1136683, “Potent and selective aggrecanase inhibitors containing cyclic P1 substituents” (Bioorg Med Chem Lett, 2003).
